Experimental data reported in US8147838B2, “Peptide” (priority 2005, dated 2012).
No end group written: not given here.

Columns and labels:
[1] = target: MHC class I allele A*0101 (A1) (Homo sapiens, UniProt P04439, A114D/A174V/A182V/D101N/D185E/E176A/E190D/L180R/Q94H/R68K/S129P/T187R/V100A/V91M/W191G); assay: iScore multi-parametric analysis, A*0101; type: binding; conditions: for iScore, MHC Class I Molecule A*0101: level of binding: >0.5, 0.25-0.5, <0.25; for iScore (iTopia), A*0101: integrates half-life and ED50
Experimental: (§1) Finally, multiparametric analysis is performed on the results from these assays and an iScore is generated. The iScore represents a measure of the overall quality of peptide-MHC binding, enabling candidate peptides to be ranked in order of binding quality and allowing rational prioritisation of peptides for functional cellular follow-up studies.
(§2) As part of the validation of the iTopia system, a panel of overlapping peptides derived from the CMV pp 65 protein were used and their binding properties for the A*0201 allele analysed. A number of T cell epitopes restricted by HLA A*0201 had already been identified (by more conventional methodologies) by other researchers for this protein. In the iTopia study, it was reported that an iScore of: >0.5 represented “good quality binding”; between 0.25 and 0.5 represented “medium quality binding”; and <0.25 represented “poor quality binding”. Six of the 20 peptides which gave a “good” iScore (>0.5) for A*0201, represented previously characterised CMV pp 65 A*0201 epitopes.
(§3) Each MHC class I allele has different binding properties and affinities for peptides which they bind. Therefore, information obtained with HLA A*0201 in which peptides are ranked as good, medium or poor binders using >0.5, 0.25-0.5 and <0.25 as thresholds is not necessarily transferable between alleles. Also, different proteins are likely to have distinct immunogenic profiles and the affinities between peptides and MHC class I molecules will be different between proteins. This may be particularly relevant in the case of self-antigens where immunogenicity is likely to be lower than in foreign proteins.
(§4) Multi-parametric analysis permits the integration of half-life and ED50 parameters in an integrated iScore. This reflects the capability of a peptide to reconstitute with MHC molecules in a stable complex, defining its overall level of binding i.e. the iScore value represents the overall quality of peptide-MHC binding and is used to rank candidate peptides as an indicator of functional relevance. The lead candidate epitopes for each allele are selected for cellular functional analysis to confirm their biological relevance.
(§5) The changes in gradient of the graphs in FIGS. 7 to 10 are indicated by a line which delineates the populations of iScores forming the basis of discrimination for further functional studies.

[2] = target: MHC class I allele A*0201 (A2) (Homo sapiens, UniProt P04439, D140Y/D185E/D98H/E176V/E277Q/G131W/G231S/I119V/I121R/I166T/I218V/L300P/L318F/N151K/N90K/P208A/P217A/Q86G/Q94H/R138H/R169H/T345S); assay: iScore multi-parametric analysis, A*0201; type: binding; conditions: level of binding: >0.5, 0.25-0.5, <0.25
Experimental: as §1, §2, §3, §4, §5

[3] = target: MHC class I allele A*0301 (A3) (Homo sapiens, UniProt P04439); assay: iScore multi-parametric analysis, A*0301; type: binding; conditions: for iScore, MHC Class I Molecule A*0301: level of binding: >0.5, 0.25-0.5, <0.25
Experimental: as §1, §2, §3, §4, §5

[4] = target: MHC class I allele B*0702 (B7) (Homo sapiens, UniProt P01889); assay: iScore multi-parametric analysis, B*0702; conditions: level of binding: >0.5, 0.25-0.5, <0.25
Experimental: as §1
As part of the validation of the iTopia system, a panel of overlapping peptides derived from the CMV pp 65 protein were used and their binding properties for the A*0201 allele analysed. A number of T cell epitopes restricted by HLA A*0201 had already been identified (by more conventional methodologies) by other researchers for this protein. In the iTopia study, it was reported that an iScore of: >0.5 represented “good quality binding”; between 0.25 and 0.5 represented “medium quality binding”; and <0.25 represented “poor quality binding”.
as §4

Sequence | iScore, MHC Class I Molecule A*0101 [1] | iScore, MHC Class I Molecule A*0201 [2] | iScore, MHC Class I Molecule A*0301 [3] | iScore, MHC Class I Molecule B*0702 [4] | iScore (iTopia), A*0101 [1] | iScore (iTopia), A*0301 ([3]; integrates half-life and ED50)
PPLAELAAL [Peptide 58, PPLAELAAL] | 0 | 0.075 | 0 | 0.145 |  | 
LVELILNHI [Peptide 88] | 0 | 0.109 | 0 | 0 |  | 
LAELAALNL [Peptide 59] | 0 | 0.72 | 0 | 0.074 |  | 
LEDNALKVL [Peptide 133] | 0 | 0.122 | 0 | 0 |  | 
ELAALNLSG [Peptide 60] | 0 | 0.075 | 0 | 0 |  | 
AVSAQPPLP [Peptide 26] | 0 | 0.062 | 0 | 0 |  | 
SPTSSASSF [Peptide 17] | 0 | 0 | 0 | 0.335 |  | 
AQLPSLRHL [Peptide 116] | 0 | 0.162 | 0 | 0 |  | 
IKKWMHNIR [Peptide 191] | 0 | 0.181 | 0 | 0 |  | 
VLLELNSAD [Peptide 167] | 0 | 0.105 | 0 | 0 |  | 
HMEGYHYRY [Peptide 198] | 0.357 | 0.24 | 0.189 | 0 | 0.357 | 0.189
VPTDLPAYV [Peptide 43] | 0.098 | 0.059 | 0 | 0 | 0.098 | 
RSFEGMVVA [Peptide 97] | 0 | 0.189 | 0 | 0 |  | 
YEINADPRL [Peptide 202] | 0 | 0.077 | 0 | 0 |  | 
VRAGAFEHL [Peptide 67] | 0 | 0 | 0 | 0.085 |  | 
VFLGIVLAL [Peptide 179, VFLGIVLAL] | 0 | 0.606 | 0 | 0 |  | 
VSLTYVSFR [Peptide 124] | 0 | 0 | 0.025 | 0 |  | 
LPRDVLAQL [Peptide 113] | 0 | 0 | 0 | 0.305 |  | 
